Measurements: PubChem BioAssay (NCI)
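Protocol summary: plate cells (96-well), add compound at 5 concentrations, incubate 48 h, interpolate endpoints linearly. At the GI50, growth is halved. TGI denotes the concentration required for complete inhibition of growth.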

Tests used:
Assay in all cases: NCI tumour cell line growth inhibition, 48 h
U251 CNS = test system: U251 CNS
HOP-92 NSCLC = test system: HOP-92 NSCLC
SN12C renal = test system: SN12C renal
TK-10 renal = test system: TK-10 renal
MDA-MB-435 = test system: MDA-MB-435
HCT-116 colon = test system: HCT-116 colon
MCF7 breast = test system: MCF7 breast
NCI-H226 lung = test system: NCI-H226 lung
SF-268 CNS = test system: SF-268 CNS
SK-MEL-28 melanoma = test system: SK-MEL-28 melanoma
SR leukemia = test system: SR leukemia
CCRF-CEM leukemia = test system: CCRF-CEM leukemia
KM12 colon = test system: KM12 colon
SK-MEL-5 melanoma = test system: SK-MEL-5 melanoma
A498 renal = test system: A498 renal
RPMI-8226 leukemia = test system: RPMI-8226 leukemia
M14 melanoma = test system: M14 melanoma
PC-3 prostate = test system: PC-3 prostate
SNB-19 CNS = test system: SNB-19 CNS
HS 578T breast = test system: HS 578T breast
EKVX NSCLC = test system: EKVX NSCLC
OVCAR-4 ovarian = test system: OVCAR-4 ovarian
CAKI-1 renal = test system: CAKI-1 renal
SF-539 CNS = test system: SF-539 CNS
SW-620 colon = test system: SW-620 colon
HOP-62 NSCLC = test system: HOP-62 NSCLC
COLO 205 colon = test system: COLO 205 colon
OVCAR-5 ovarian = test system: OVCAR-5 ovarian
A549 NSCLC = test system: A549 NSCLC
IGROV1 ovarian = test system: IGROV1 ovarian
NCI-H522 lung = test system: NCI-H522 lung
RXF 393 renal = test system: RXF 393 renal
HCT-15 colon = test system: HCT-15 colon
MDA-MB-468 breast = test system: MDA-MB-468 breast
MOLT-4 leukemia = test system: MOLT-4 leukemia
UACC-62 melanoma = test system: UACC-62 melanoma
K-562 leukemia = test system: K-562 leukemia
UO-31 renal = test system: UO-31 renal
786-0 renal = test system: 786-0 renal
NCI-H460 lung = test system: NCI-H460 lung
ACHN renal = test system: ACHN renal
LOX IMVI melanoma = test system: LOX IMVI melanoma
SF-295 CNS = test system: SF-295 CNS
HCC-2998 colon = test system: HCC-2998 colon
HT29 colon = test system: HT29 colon
DU-145 prostate = test system: DU-145 prostate
OVCAR-8 ovarian = test system: OVCAR-8 ovarian
BT-549 breast = test system: BT-549 breast
HL-60(TB) leukemia = test system: HL-60(TB) leukemia
T-47D breast = test system: T-47D breast
SNB-75 CNS = test system: SNB-75 CNS
OVCAR-3 ovarian = test system: OVCAR-3 ovarian
UACC-257 melanoma = test system: UACC-257 melanoma
MDA-MB-231 breast = test system: MDA-MB-231 breast
MALME-3M melanoma = test system: MALME-3M melanoma
SK-OV-3 ovarian = test system: SK-OV-3 ovarian
NCI-H23 lung = test system: NCI-H23 lung

## Cc1cccc(NC(=O)[C@]23CCC(C)(C)CC2C2=CCC4[C@@]5(C)C[C@@H](O)[C@H](O)[C@@](C)(CO)C5CC[C@@]4(C)[C@]2(C)CC3)c1 (some centres undefined)
U251 CNS
  GI50: 14.9 µM
  TGI: 30.1 µM
HOP-92 NSCLC
  GI50: 8.64 µM
  TGI: 23.1 µM
SN12C renal
  GI50: 12.6 µM
  TGI: 25.5 µM
TK-10 renal
  GI50: 16.5 µM
  TGI: 35.8 µM
MDA-MB-435
  GI50: 13.3 µM
  TGI: 26.5 µM
HCT-116 colon
  GI50: 10.7 µM
  TGI: 22.5 µM
MCF7 breast
  GI50: 5.71 µM
  TGI: 19.2 µM
NCI-H226 lung
  GI50: 10.4 µM
  TGI: 22.9 µM
SF-268 CNS
  GI50: 14.1 µM
  TGI: 42.3 µM
SK-MEL-28 melanoma
  GI50: 13.3 µM
  TGI: 26.5 µM
SR leukemia
  GI50: 16.7 µM
  TGI: > 100 µM
CCRF-CEM leukemia
  GI50: 9.29 µM
  TGI: 35.1 µM
KM12 colon
  GI50: 14.1 µM
  TGI: 30.8 µM
SK-MEL-5 melanoma
  GI50: 11.9 µM
  TGI: 24.3 µM
A498 renal
  GI50: 15.7 µM
  TGI: 29.4 µM
RPMI-8226 leukemia
  GI50: 6.25 µM
  TGI: 32 µM
M14 melanoma
  GI50: 13.7 µM
  TGI: 27.3 µM
PC-3 prostate
  GI50: 5.16 µM
  TGI: 20.5 µM
SNB-19 CNS
  GI50: 18.4 µM
  TGI: 47.4 µM
HS 578T breast
  GI50: 12.8 µM
  TGI: 50.8 µM
EKVX NSCLC
  GI50: 12.8 µM
  TGI: 29.1 µM
OVCAR-4 ovarian
  GI50: 11.5 µM
  TGI: 25.2 µM
CAKI-1 renal
  GI50: 6.63 µM
  TGI: 21.9 µM
SF-539 CNS
  GI50: 13.9 µM
  TGI: 28 µM
SW-620 colon
  GI50: 15 µM
  TGI: 29.7 µM
HOP-62 NSCLC
  GI50: 14.9 µM
  TGI: 29.4 µM
COLO 205 colon
  GI50: 13.6 µM
  TGI: 29.1 µM
OVCAR-5 ovarian
  GI50: 13.3 µM
  TGI: 26.4 µM
A549 NSCLC
  GI50: 22.2 µM
  TGI: > 100 µM
IGROV1 ovarian
  GI50: 12.2 µM
  TGI: 25.4 µM
NCI-H522 lung
  GI50: 14.6 µM
  TGI: 28.9 µM
RXF 393 renal
  GI50: 3.77 µM
  TGI: 17 µM
HCT-15 colon
  GI50: 10.8 µM
  TGI: 23.4 µM
MDA-MB-468 breast
  GI50: 5.17 µM
  TGI: 20.4 µM
MOLT-4 leukemia
  GI50: 7.87 µM
  TGI: 52 µM
UACC-62 melanoma
  GI50: 11.3 µM
  TGI: 23.7 µM
K-562 leukemia
  GI50: 14.5 µM
  TGI: 60.5 µM
UO-31 renal
  GI50: 7.07 µM
  TGI: 20.3 µM
786-0 renal
  GI50: 14.6 µM
  TGI: 29.4 µM
NCI-H460 lung
  GI50: 12.5 µM
  TGI: 25.6 µM
ACHN renal
  GI50: 12.4 µM
  TGI: 24.9 µM
LOX IMVI melanoma
  GI50: 12.8 µM
  TGI: 27.8 µM
SF-295 CNS
  GI50: 10 µM
  TGI: 22.5 µM
HCC-2998 colon
  GI50: 13 µM
  TGI: 26.2 µM
HT29 colon
  GI50: 13.1 µM
  TGI: 27 µM
DU-145 prostate
  GI50: 16.5 µM
  TGI: 39.1 µM
OVCAR-8 ovarian
  GI50: 18.5 µM
  TGI: 60.2 µM
BT-549 breast
  GI50: 14.3 µM
  TGI: 27.8 µM
HL-60(TB) leukemia
  GI50: 15.2 µM
  TGI: 55.9 µM
T-47D breast
  GI50: 7.45 µM
  TGI: 20.7 µM
SNB-75 CNS
  GI50: 6.02 µM
  TGI: 39.1 µM
OVCAR-3 ovarian
  GI50: 14 µM
  TGI: 28 µM
UACC-257 melanoma
  GI50: 15.3 µM
  TGI: 31.5 µM
MDA-MB-231 breast
  GI50: 13.8 µM
  TGI: 28.1 µM
MALME-3M melanoma
  GI50: 14.7 µM
  TGI: 28.3 µM
SK-OV-3 ovarian
  GI50: 14.5 µM
  TGI: 34.6 µM
NCI-H23 lung
  GI50: 14.6 µM
  TGI: 28.8 µM
